Data reported in patent US12410160B2 (Gilead Sciences, Inc., priority 2021, dated 2025).
Read-outs that look alike come from different tables or passages of the source.

Columns and labels:
human KHK-C = human KHK-C (Homo sapiens (Human), UniProt P50053); experiment: KHK Biochemical Assay (IC50), ADP-Glo, KHK-C; settings: average of at least two separate assays
Procedure, shortened: (§1)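 His-tagged enzyme expressed in BL21 (DE3), Ni-NTA purified. Compounds, serially diluted 1:3 in DMSO, pre-incubated 30 min with enzyme in 50 mM Hepes pH 7.4, 140 mM KCl, 5 mM MgCl2, 0.01% Triton-X, then ATP and fructose added; 4 h at room temperature. ADP formation read by ADP-Glo luminescence.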

HepG2 cells = experiment: F1P Cell-Based Assay (EC50), 13C6-fructose-1-phosphate in HepG2 cells (cell culture medium or 50% human plasma)
Procedure: F1P Cell-Based Assay (EC50)
Compounds were serially diluted (1:3) in DMSO. The LabCyte ECHO Acoustic dispenser system was used to pre-spot the assay plates (Greiner, Catalog #781091) with 400 nL (200-fold final dilution in 80 μL assay volume) of compound. 25,000 cells/well HepG2 cells (ATCC Catalog #HB-8065) were plated in a 40 μL volume/well in DMEM medium with 4.5 g/L glucose, 1× Penicillin-Streptomycin-Glutamine, and 10% FBS, using a BioTEK dispenser in a biological hood and incubated overnight at 37° C., 5% CO2, 90% humidity. 40 μL/well serum free assay medium (for F1P assay in cell culture medium), or 40 μL/well 100% human plasma (for F1P assay in 50% human plasma) were then added to the plates on the following day, and incubated for 1 hour at 37° C., 5% CO2, 90% humidity. ^13C6-labelled fructose (Sigma, Catalog #587621) in sterile PBS was added to the plates at a final concentration of 5 mM. The plates were incubated for 2 hours at 37° C., 5% CO2, 90% humidity. The assay was quenched by washing the cells with sterile PBS and adding 60 μL/well of 80% (v/v) methanol, 2 mM ammonium acetate and 2.5 μM Crotonyl-CoA, using a BioTEK washer-dispenser system. The plates were then sealed and stored in the −80° C. freezer until ready for RapidFire readout. ^13C6-fructose-1-phosphate in individual wells was quantified using the Agilent RapidFire High-Throughput MS system in negative mode using a […]. Mobile Phase 1 consisted of 20 mM ammonium acetate with 0.05% acetic acid in 100% methanol. Mobile phase 2 consisted of 5 mM octylamine in water (pH adjusted to 5 using acetic acid). F1P signals in individual wells were normalized by crotonyl CoA internal control.

human KHK-A = human KHK-A (Homo sapiens (Human), UniProt P50053); experiment: KHK Biochemical Assay (IC50), ADP-Glo, KHK-A; settings: ADP-Glo; average of at least two separate assays
Procedure, shortened: as §1

[1] = Homo sapiens, HepG2, HepG2 cells, 50% human plasma, read-out: F1P 50% HP EC50
[2] = Homo sapiens, HepG2, read-out: F1P 10% FBS EC50, HepG2 cells, cell culture medium (10% FBS)

Chain of human KHK-C (P50053 whole entry): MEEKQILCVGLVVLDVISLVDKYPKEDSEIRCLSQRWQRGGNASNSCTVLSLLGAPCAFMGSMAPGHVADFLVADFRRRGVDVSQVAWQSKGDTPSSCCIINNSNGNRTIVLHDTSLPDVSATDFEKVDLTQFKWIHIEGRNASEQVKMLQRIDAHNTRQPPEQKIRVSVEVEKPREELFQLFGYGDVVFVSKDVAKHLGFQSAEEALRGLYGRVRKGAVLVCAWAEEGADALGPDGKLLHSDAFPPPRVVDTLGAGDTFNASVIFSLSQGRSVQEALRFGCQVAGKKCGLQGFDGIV
Chain of human KHK-A (P50053 other isoform, or with tags, fused parts or gaps): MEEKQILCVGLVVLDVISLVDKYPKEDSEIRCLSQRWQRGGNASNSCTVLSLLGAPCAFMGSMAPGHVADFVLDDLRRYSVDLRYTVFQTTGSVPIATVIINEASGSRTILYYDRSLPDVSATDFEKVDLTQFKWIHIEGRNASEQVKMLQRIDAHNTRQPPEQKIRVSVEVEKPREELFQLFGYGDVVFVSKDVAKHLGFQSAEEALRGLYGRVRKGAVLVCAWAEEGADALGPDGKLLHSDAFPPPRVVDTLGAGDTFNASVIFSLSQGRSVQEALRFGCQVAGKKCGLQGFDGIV

Compound | EC50 (HepG2 cells; [1]) | EC50 (HepG2 cells; [2]) | other results
C[C@H]1CCN1c1nc(-c2cn(C3CNC3)nn2)c2c(n1)C(F)(F)CC2 [Example 653, 4-[1-(azetidin-3-yl)triazol-4-yl]-7,7-difluoro-2-[(2S)-2-methylazetidin-1-yl]-5,6-dihydrocyclopenta[d]pyrimidine] | 10.3 nM | 11 nM | –
C[C@H]1CCN1c1nc(-c2cccc(-n3ccnn3)c2)c2c(n1)C(F)(F)CC2 [Example 654, 7,7-difluoro-2-[(2S)-2-methylazetidin-1-yl]-4-[3-(triazol-1-yl)phenyl]-5,6-dihydrocyclopenta[d]pyrimidine] | 214 nM | 129 nM | –
C[C@H]1CCN1c1nc(-c2ccc(-n3ccnn3)cc2)c2c(n1)C(F)(F)CC2 [Example 655, 7,7-difluoro-2-[(2S)-2-methylazetidin-1-yl]-4-[4-(triazol-1-yl)phenyl]-5,6-dihydrocyclopenta[d]pyrimidine] | 236 nM | 46.2 nM | –
N#C[C@H]1CCN1c1nc(-c2ccc([C@@H](N)C(F)F)cc2)c2c(n1)C(F)(F)CC2 [Example 660, (2R)-1-[4-[4-[(1R)-1-amino-2,2-difluoro-ethyl]phenyl]-7,7-difluoro-5,6-dihydrocyclopenta[d]pyrimidin-2-yl]azetidine-2-carbonitrile] | 26.7 nM | 19.8 nM | –
C[C@H]1[C@H](O)CN1c1nc(-c2ccc3c(c2)CCS3(=N)=O)c2c(n1)C(F)(F)CC2 (stereo partly drawn) [Example 664, (2S,3R)-1-[7,7-difluoro-4-(1-imino-1-oxo-2,3-dihydrobenzothiophen-5-yl)-5,6-dihydrocyclopenta[d]pyrimidin-2-yl]-2-methyl-azetidin-3-ol] | – | – | EC50 (HepG2 cells; Homo sapiens, HepG2, read-out: F1P 10% FBS EC50): 80.2 nM; EC50 (HepG2 cells; Homo sapiens, HepG2, read-out: F1P 50% HP EC50): 78.6 nM
CC1Cc2cc(-c3nc(N4CC[C@@H]4C)nc4c3CCC4)ccc2C1NS(C)(=O)=O (stereo partly drawn) [Example 891, N-(2-methyl-5-(2-((S)-2-methylazetidin-1-yl)-6,7-dihydro-5H-cyclopenta[d]pyrimidin-4-yl)-2,3-dihydro-1H-inden-1-yl)methanesulfonamide] | – | – | IC50 (human KHK-C; ADP-Glo): 59.5 nM; IC50 (human KHK-A): 167 nM
COC1Cc2cc(-c3nc(N4CC[C@@H]4C)nc4c3CCC4)ccc2C1NS(C)(=O)=O (stereo partly drawn) [Example 892, N-(2-methoxy-5-(2-((S)-2-methylazetidin-1-yl)-6,7-dihydro-5H-cyclopenta[d]pyrimidin-4-yl)-2,3-dihydro-1H-inden-1-yl)methanesulfonamide] | – | – | IC50 (human KHK-C; ADP-Glo): 99.5 nM; IC50 (human KHK-A): 330 nM
C[C@H]1CCN1c1nc2c(c(-c3ccc4c(c3)CC(C(F)(F)F)C4NS(C)(=O)=O)n1)CCC2 (stereo partly drawn) [Example 893, N-(5-(2-((S)-2-methylazetidin-1-yl)-6,7-dihydro-5H-cyclopenta[d]pyrimidin-4-yl)-2-(trifluoromethyl)-2,3-dihydro-1H-inden-1-yl)methanesulfonamide] | – | – | IC50 (human KHK-C; ADP-Glo): 733 nM; IC50 (human KHK-A): 1780 nM
CC1CC(NS(C)(=O)=O)c2ccc(-c3nc(N4CC[C@@H]4C)nc4c3CCC4)cc21 (stereo partly drawn) [Example 894, N-(3-methyl-5-(2-((S)-2-methylazetidin-1-yl)-6,7-dihydro-5H-cyclopenta[d]pyrimidin-4-yl)-2,3-dihydro-1H-inden-1-yl)methanesulfonamide] | – | – | IC50 (human KHK-C; ADP-Glo): 20.5 nM; IC50 (human KHK-A): 106 nM
Cc1cc(-c2nc(N3CC[C@@H]3C)nc3c2CCC3)cc2c1C(NS(C)(=O)=O)CC2 (stereo partly drawn) [Example 895, N-(7-methyl-5-(2-((S)-2-methylazetidin-1-yl)-6,7-dihydro-5H-cyclopenta[d]pyrimidin-4-yl)-2,3-dihydro-1H-inden-1-yl)methanesulfonamide] | – | – | IC50 (human KHK-C; ADP-Glo): 38.1 nM; IC50 (human KHK-A): 175 nM
NC1(c2ccc(-c3nc(N4CC[C@@H]4C(F)(F)F)nc4c3CCC4(F)F)s2)COC1 [Example 896, (R)-3-(5-(7,7-difluoro-2-(2-(trifluoromethyl)azetidin-1-yl)-6,7-dihydro-5H-cyclopenta[d]pyrimidin-4-yl)thiophen-2-yl)oxetan-3-amine] | – | – | IC50 (human KHK-C; ADP-Glo): 1.7 nM; IC50 (human KHK-A): 2.1 nM
(S)-4-(2-(2-methylazetidin-1-yl)-6,7-dihydro-5H-cyclopenta[d]pyrimidin-4-yl)pyridine-2-sulfonamide [Example 224] | – | – | IC50 (human KHK-C; ADP-Glo): 114 nM; IC50 (human KHK-A): 155 nM

Further lines, with some results ahead:

EC50 (HepG2 cells; [1]) | EC50 (HepG2 cells; [2]) | Compound | other results
207 nM | 104 nM | C[C@H]1[C@H](O)CN1c1nc(-c2ccc3c(c2)CC[C@]32COC(=O)N2)c2c(n1)C(F)(F)CC2 (single isomer, unassigned) [Example 475] | IC50 (human KHK-C): 15 nM
– | 28.5 nM | COc1cc(-c2nc(N3C[C@@H](O)[C@@H]3C)nc3c2CCC3(F)F)cc2c1[C@H](NS(C)(=O)=O)CO2 (single isomer, unassigned) [Example 478] | IC50 (human KHK-C): 2.9 nM; EC50 (HepG2 cells; HepG2 cells, 50% human plasma, read-out: F1P 50% HP EC50): 55.5 nM
55.1 nM | 5.1 nM | C[C@H]1[C@H](O)CN1c1nc(-c2ccc(OC(F)F)c(S(C)(=N)=O)c2)c2c(n1)C(F)(F)CC2 (some centres unmarked) [Example 532] | –
34.4 nM | 16 nM | C[C@H]1[C@H](O)CN1c1nc(-c2ccc3c(c2)OC(C(F)F)CNC3=O)c2c(n1)C(F)(F)CC2 (stereo partly drawn) [Example 597, 8-(7,7-difluoro-2-((2S,3R)-3-hydroxy-2-methylazetidin-1-yl)-6,7-dihydro-5H-cyclopenta[d]pyrimidin-4-yl)-2-(difluoromethyl)-3,4-dihydrobenzo[f][1,4]oxazepin-5(2H)-one] | –
26 nM | 14.5 nM | C[C@H]1[C@H](O)CN1c1nc(-c2ccc3c(c2)C(NS(C)(=O)=O)CO3)c2c(n1)C(F)(F)CC2 (some centres unmarked) [Example 613] | –
> 500 nM | 77.3 nM | C[C@H]1[C@H](O)CN1c1nc(-c2cccc(-n3cnnc3)c2)c2c(n1)C(F)(F)CC2 [Example 619, (2S,3R)-1-(4-(3-(4H-1,2,4-triazol-4-yl)phenyl)-7,7-difluoro-6,7-dihydro-5H-cyclopenta[d]pyrimidin-2-yl)-2-methylazetidin-3-ol] | –
282 nM | 129 nM | CCS(=O)(=O)N[C@H]1COc2cc(-c3nc(N4C[C@@H](O)[C@@H]4C)nc4c3CCC4(F)F)ccc21 [Example 624, N—((R)-6-(7,7-difluoro-2-((2S,3R)-3-hydroxy-2-methylazetidin-1-yl)-6,7-dihydro-5H-cyclopenta[d]pyrimidin-4-yl)-2,3-dihydrobenzofuran-3-yl)ethanesulfonamide] | –
88.4 nM | 52.7 nM | C[C@H]1[C@H](O)CN1c1nc(-c2ccc3c(c2)S(=O)(=O)CC3NS(C)(=O)=O)c2c(n1)C(F)(F)CC2 (stereo partly drawn) [Example 665, N-[6-[7,7-difluoro-2-[(2S,3R)-3-hydroxy-2-methyl-azetidin-1-yl]-5,6-dihydrocyclopenta[d]pyrimidin-4-yl]-1,1-dioxo-2,3-dihydrobenzothiophen-3-yl]methanesulfonamide] | –
75.8 nM | 20.3 nM | C[C@H]1[C@H](O)CN1c1nc(-c2cccc(N=S3(=O)CCOCC3)c2)c2c(n1)C(F)(F)CC2 [Example 673, (2S,3R)-1-[7,7-difluoro-4-[3-[(4-oxo-1,4-oxathian-4-ylidene)amino]phenyl]-5,6-dihydrocyclopenta[d]pyrimidin-2-yl]-2-methyl-azetidin-3-ol] | –
74.1 nM | 67.9 nM | C[C@H]1[C@H](O)CN1c1nc(-c2ccc3c(c2)S(C)(=O)=NC3)c2c(n1)C(F)(F)CC2 (stereo partly drawn) [Example 805, (2S,3R)-1-[7,7-difluoro-4-(1-methyl-1-oxo-3H-1,2-benzothiazol-6-yl)-5,6-dihydrocyclopenta[d]pyrimidin-2-yl]-2-methyl-azetidin-3-ol] | –
155 nM | 91.6 nM | COC(=O)N[C@H]1COc2cc(-c3nc(N4C[C@@H](O)[C@@H]4C)nc4c3CCC4(F)F)ccc21 [Example 814, Methyl N-[(3R)-6-[7,7-difluoro-2-[(2S,3R)-3-hydroxy-2-methyl-azetidin-1-yl]-5,6-dihydrocyclopenta[d]pyrimidin-4-yl]-2,3-dihydrobenzofuran-3-yl]carbamate] | –
138 nM | 64.3 nM | COC(=O)N[C@@H]1COc2cc(-c3nc(N4C[C@@H](O)[C@@H]4C)nc4c3CCC4(F)F)ccc21 [Example 815, Methyl N-[(3S)-6-[7,7-difluoro-2-[(2S,3R)-3-hydroxy-2-methyl-azetidin-1-yl]-5,6-dihydrocyclopenta[d]pyrimidin-4-yl]-2,3-dihydrobenzofuran-3-yl]carbamate] | –
